Data as given in patent US4937346A, “Phenyl-azacykloalkanes” (Carlsson; Per Arvid Emil, priority 1979, dated 1990).
Structures can show the parent of a compound that is named as a salt. Where two headings read alike, the source gives them in different places.

System: rat brain tyrosine hydroxylation
Assay: In-vivo determination of rat brain tyrosine hydroxylation (Dopa formation after NSD 1015, reserpine-pretreated rats)
Conditions: sc
Description: 2. In-vivo determination of rat brain tyrosine hydroxylation.
The compounds under evaluation were tested biochemically for central DA-receptor (pre- and/or postsynaptic) stimulating activity. The concept of this biochemical screening method is that a DA-receptor agonist will stimulate the receptor and through regulatory feedback systems effect a decline in tyrosine hydroxylase activity and thus a subsequent reduction in the synthesis rate for DA in the presynaptic neuron. Dopa formation, as determined after in-vivo inhibition of the aromatic L-amino acid decarboxylase with NSD 1015 (3-hydroxybenzyl-hydrazine hydrochloride), is taken as an indirect measure of DA synthesis rate.
Rats (150-300 g) pretreated with reserpine were given the compounds under evaluation. Gross behavioral observations (changes in motility, stereotypies etc.) were made in order to evaluate possible postsynaptic dopamine receptor activity. Subsequent administration of NSD 1015, decapitation, brain dissection (corpora striate and the limbic fore-brain), homogenization, centrifugation, ion-exchange chromatography and spectrofluorimetric measurements (all as described in detail by Wikstrom et al., in J. Med. Chem. 21, 864-867, 1978, and references cited therein), gave the actual Dopa levels. Several doses (n=4-6) were tested in order to obtain dose-response curves for each compound and brain area. The dose of a compound producing a half-maximal decrease in the Dopa level in the rat brain part was then estimated.

[1] = limbic, inactive, read-out: ED50 Limbic (class symbol)
[2] = striatum, inactive, read-out: ED50 Striatum (class symbol)
[3] = reserpine-pretreated rats, Dopa level, limbic, read-out: ED50 Limbic
[4] = reserpine-pretreated rats, Dopa level, striatum, read-out: ED50 Striatum

Row | Structure (SMILES) | ED50 [3] [µmol/kg] | ED50 [4] [µmol/kg] | also measured
1 | Oc1cccc(C2CCNC2)c1 (centres unmarked) [1 OH H HBr, reference compound] |  |  | ED50 [1]: > 90 µmol/kg; ED50 [2]: > 90 µmol/kg
2 | CCCN1CCCC(c2cccc(OC)c2)C1 (centres unmarked) [2 OCH3 n-C3 H7 HBr, N-Propyl-3-(3-methoxyphenyl)piperidine hydrobromide, reference compound] |  |  | ED50 [1]: > 180 µmol/kg; ED50 [2]: > 180 µmol/kg
3 | CN1CCCC(c2cccc(O)c2)C1 (centres unmarked) [Compound 1] | 2.1 | 1.5 | 
4 | CCCN1CCC(c2cccc(O)c2)C1 (centres unmarked) [Compound 3, N-propyl-30(3-hydroxyphenyl)pyrrolidine] | ~45 | ~45 | 
5 | CCCCN1CCCC(c2cccc(O)c2)C1 (centres unmarked) [Compound 5, N-butyl-3-(3-hydroxphenyl)piperidine] | 1.7 | 0.7 | 
6 | CCCCCN1CCCC(c2cccc(O)c2)C1 (centres unmarked) [Compound 6, N-pentyl-3-(3-hydroxyphenyl)piperidine hydrochloride] | 0.9 | 0.6 | 
7 | C=CCN1CCCC(c2cccc(O)c2)C1 (centres unmarked) [Compound 9] | 4.2 | 4 | 
8 | CCCN1CCCC(c2cccc(OC(C)=O)c2)C1 (centres unmarked) [Compound 10, N-n-Propyl-3-(3-acetoxyphenyl)piperidine hydrochloride] | 1.2 | 1.5 | 
9 | CCCN1CCCC(c2cccc(OC(=O)C(C)(C)C)c2)C1 (centres unmarked) [Compound 11] | 2.2 | 1.7 | 
10 | CCCN1CCCC(c2cccc(OC(=O)c3ccccc3)c2)C1 (centres unmarked) [Compound 12, N-n-Propyl-3-(3-benzoyloxyphenyl)piperidine hydrochloride] | 1.8 | 2 | 
11 | OCCN1CCCC(c2cccc(O)c2)C1 (centres unmarked) [Compound 13, 2-[3-(3-Hydroxyphenyl)-piperidino]ethanol hydrochloride] | ~20 | ~20 | 
12 | CN(C)CCN1CCCC(c2cccc(O)c2)C1 (centres unmarked) [Compound 14] | ~20 | ~20 | 
13 | C=CCOc1cccc(C2CCCN(CCC)C2)c1 (centres unmarked) [Compound 16, N-n-Propyl-3-(3-allyloxyphenyl)piperidine hydrochloride] | < 45 | < 45 | 
14 | CCCN1CCCC(c2cccc(OCc3ccccc3)c2)C1 (centres unmarked) [Compound 17, N-n-Propyl-3-(3-benzyloxyphenyl)piperidine hydrochloride] | < 45 | < 45 | 
15 | CCCN1CCCC(c2cccc(OC(=O)Nc3ccccc3)c2)C1 (centres unmarked) [Compound 18, N-n-Propyl-3[3-(phenylcarbamoyloxy)phenyl]-piperidine hydrochloride] |  |  | ED50 (read-out: ED50 Limbic): < 45 µmol/kg; ED50 (read-out: ED50 Striatum): < 45 µmol/kg
16 | CCCN1CCCC(c2cccc(OC(=O)c3c(C)cccc3C)c2)C1 (centres unmarked) [Compound 19, N-n-Propyl-3-[2,6-dimethylbenzoyloxy)-phenyl]piperidine hydrochloride] | < 45 | < 45 | 
17 | CCCN1CCCC(c2cccc(OC(=O)c3ccc(OC(=O)C(C)(C)C)cc3)c2)C1 (centres unmarked) [Compound 20] | < 45 | < 45 | 
18 | CC(C)N1CCCC(c2cccc(OC(=O)c3ccccc3)c2)C1 (centres unmarked) [Compound 21] | 0.5 | 0.5 | 
19 | CCCCN1CCCC(c2cccc(OC(=O)c3ccccc3)c2)C1 (centres unmarked) [Compound 22] | < 2.7 | < 2.7 | 
